In patent US6737383B1, “Herbicidal oxadiazolidines” (priority 1999, dated 2004):

Key:
pigweed = test: Test B pre/postemergence pigweed; assay type: in vivo, Amaranthus retroflexus; conditions: Preemergence; for Plant response rating, Redroot pigweed: Rate 125 g/ha
Text: (§1) Seeds of bedstraw (Galium aparine), blackgrass (Alopecurus myosuroides), surinam grass (Brachiaria decumbens), cocklebur (Xanthium strumarium), corn (Zea mays), crabgrass (Digitaria sanguinalis), giant foxtail (Setaria faberii), morningglory (Ipomoea hederacea), pigweed (Amaranthus retroflexus), rape (Brassica napus), soybean (Glycine max), sugar beet (Beta vulgaris), velvetleaf (Abutilon theophrasti), wheat (Triticum aestivum), wild oat (Avena fatua) and purple nutsedge (Cyperus rotundus) tubers were planted and treated preemnergence with test chemicals formulated in a non-phytotoxic solvent mixture which included a surfactant.
(§2) At the same time, these crop and weed species were also treated with postemergence applications of test chemicals formulated in the same manner. Plants ranged in height from 2 to 18 cm (1- to 4-leaf stage) for postemergence treatments. Plant species in the flood test consisted of rice (Oryza sativa), smallflower flatsedge (Cyperus difformis), duck salad (Heteranthera limosa) and bamyardgrass (Echinochloa crus-galli) grown to the 2-leaf stage for testing. Treated plants and controls were maintained in a greenhouse for twelve to sixteen days, after which all species were compared to controls and visually evaluated. Plant response ratings, summarized in Table B, are based on a scale of 0 to 10 where 0 is no effect and 10 is complete control. A dash (−) response means no test result.

wheat = test: Test B pre/postemergence wheat; assay type: in vivo, Triticum aestivum; conditions: Preemergence; for Plant response rating, Wheat: Rate 125 g/ha
Text: as §1, §2

sugar beet = test: Test B pre/postemergence sugar beet; assay type: in vivo, Beta vulgaris; conditions: Preemergence; for Plant response rating, Sugarbeets: Rate 125 g/ha
Text: as §1, §2

soybean = test: Test B pre/postemergence soybean; assay type: in vivo, Glycine max; conditions: Preemergence; for Plant response rating, Soybean: Rate 125 g/ha
Text: as §1, §2

crabgrass = test: Test B pre/postemergence crabgrass; assay type: in vivo, Digitaria sanguinalis; conditions: Preemergence; for Plant response rating, Crabgrass: Rate 125 g/ha
Text: as §1, §2

giant foxtail = test: Test B pre/postemergence giant foxtail; assay type: in vivo, Setaria faberii; conditions: Preemergence; for Plant response rating, Giant foxtail: Rate 125 g/ha
Text: as §1, §2

velvetleaf = test: Test B pre/postemergence velvetleaf; assay type: in vivo, Abutilon theophrasti; conditions: Preemergence; for Plant response rating, Velvetleaf: Rate 125 g/ha
Text: as §1, §2

wild oat = test: Test B pre/postemergence wild oat; assay type: in vivo, Avena fatua; conditions: Preemergence; for Plant response rating, Wild oats: Rate 125 g/ha
Text: as §1, §2

corn = test: Test B pre/postemergence corn; assay type: in vivo, Zea mays; conditions: Preemergence; for Plant response rating, Corn: Rate 125 g/ha
Text: as §1, §2

rape = test: Test B pre/postemergence rape; assay type: in vivo, Brassica napus; conditions: Preemergence; for Plant response rating, Rape: Rate 125 g/ha
Text: as §1, §2

morningglory = test: Test B pre/postemergence morningglory; assay type: in vivo, Ipomoea hederacea; conditions: Preemergence; for Plant response rating, Morningglory: Rate 125 g/ha
Text: as §1, §2

surinam grass = test: Test B pre/postemergence surinam grass; assay type: in vivo, Brachiaria decumbens; conditions: Preemergence
Text: as §1, §2

cocklebur = test: Test B pre/postemergence cocklebur; assay type: in vivo, Xanthium strumarium; conditions: Preemergence
Text: as §1, §2

bedstraw = test: Test B pre/postemergence bedstraw; assay type: in vivo, Galium aparine; conditions: Preemergence
Text: as §1, §2

purple nutsedge = test: Test B pre/postemergence purple nutsedge; assay type: in vivo, Cyperus rotundus; conditions: Preemergence; for Plant response rating, Nutsedge: Rate 125 g/ha
Text: as §1, §2

blackgrass = test: Test B pre/postemergence blackgrass; assay type: in vivo, Alopecurus myosuroides; conditions: Preemergence
Text: as §1, §2

[1] = scale of 0 to 10 where 0 is no effect and 10 is complete control
[2] = Rate 250 g/ha, scale 0 (no effect) to 10 (complete control)
[3] = Rate 62 g/ha, scale of 0 to 10 where 0 is no effect and 10 is complete control
[4] = Rate 125 g/ha, scale of 0 to 10 where 0 is no effect and 10 is complete control
[5] = Rate 500 g/ha, scale of 0 to 10 where 0 is no effect and 10 is complete control
[6] = Rate 500 g/ha, scale 0 to 10 (0 no effect, 10 complete control)

CC(C)N(C(=O)n1oc(=O)n(C(CF)CCl)c1=O)c1ccc(F)cc1 (racemic) [Compound 707]
Plant response rating, Redroot pigweed (pigweed; [1]): 10 | Redroot pigweed plant response rating (pigweed; [2]): 10 | Wheat plant response rating (wheat; [3]): 2 | Plant response rating, Wheat (wheat; [1]): 2 | Wheat plant response rating (wheat; [2]): 2 | Sugarbeets plant response rating (sugar beet; [3]): 6 | Plant response rating, Sugarbeets (sugar beet; [1]): 6 | Sugarbeets plant response rating (sugar beet; [2]): 8 | Soybean plant response rating (soybean; [3]): 0 | Plant response rating, Soybean (soybean; [1]): 0 | Soybean plant response rating (soybean; [2]): 0 | Crabgrass plant response rating (crabgrass; [3]): 5 | Plant response rating, Crabgrass (crabgrass; [1]): 9 | Crabgrass plant response rating (crabgrass; [2]): 9 | Giant foxtail plant response rating (giant foxtail; [3]): 6 | Plant response rating, Giant foxtail (giant foxtail; [1]): 10 | Giant foxtail plant response rating (giant foxtail; [2]): 10 | Velvetleaf plant response rating (velvetleaf; [3]): 3 | Plant response rating, Velvetleaf (velvetleaf; [1]): 5 | Velvetleaf plant response rating (velvetleaf; [2]): 5 | Wild oats plant response rating (wild oat; [3]): 8 | Plant response rating, Wild oats (wild oat; [1]): 8 | Wild oats plant response rating (wild oat; [2]): 9 | Corn plant response rating (corn; [3]): 0 | Plant response rating, Corn (corn; [1]): 0 | Corn plant response rating (corn; [2]): 2 | Rape plant response rating (rape; [3]): 8 | Plant response rating, Rape (rape; [1]): 8 | Rape plant response rating (rape; [2]): 10 | Morningglory plant response rating (morningglory; [3]): 3 | Plant response rating, Morningglory (morningglory; [1]): 3 | Morningglory plant response rating (morningglory; [2]): 4 | B. signalgrass plant response rating (surinam grass; [3]): 6 | Plant response rating, B. signalgrass (surinam grass; [4]): 7 | B. signalgrass plant response rating (surinam grass; [2]): 9 | Plant response rating, B. signalgrass (surinam grass; [5]): 10 | Cocklebur plant response rating (cocklebur; [3]): 0 | Plant response rating, Cocklebur (cocklebur; [4]): 0 | Cocklebur plant response rating (cocklebur; [2]): 0 | Plant response rating, Cocklebur (cocklebur; [5]): 0 | Bedstraw plant response rating (bedstraw; [3]): 7 | Plant response rating, Bedstraw (bedstraw; [4]): 7 | Bedstraw plant response rating (bedstraw; [2]): 10 | Plant response rating, Bedstraw (bedstraw; [5]): 10 | Nutsedge plant response rating (purple nutsedge; [3]): 0 | Plant response rating, Nutsedge (purple nutsedge; [1]): 0 | Nutsedge plant response rating (purple nutsedge; [2]): 0 | Blackgrass plant response rating (blackgrass; [3]): 9 | Plant response rating, Blackgrass (blackgrass; [4]): 10 | Blackgrass plant response rating (blackgrass; [2]): 10 | Plant response rating, Blackgrass (blackgrass; [5]): 10

CC(C)N(C(=O)n1oc(=O)n(C(C)C2=NOCC2)c1=O)c1ccccc1 (racemic) [Compound 729]
Redroot pigweed plant response rating (pigweed; [3]): 7 | Plant response rating, Redroot pigweed (pigweed; [1]): 9 | Redroot pigweed plant response rating (pigweed; [2]): 10 | Redroot pigweed plant response rating (pigweed; [6]): 10 | Wheat plant response rating (wheat; [3]): 0 | Plant response rating, Wheat (wheat; [1]): 0 | Wheat plant response rating (wheat; [2]): 4 | Wheat plant response rating (wheat; [6]): 6 | Sugarbeets plant response rating (sugar beet; [3]): 0 | Plant response rating, Sugarbeets (sugar beet; [1]): 0 | Sugarbeets plant response rating (sugar beet; [2]): 0 | Sugarbeets plant response rating (sugar beet; [6]): 7 | Soybean plant response rating (soybean; [3]): 0 | Plant response rating, Soybean (soybean; [1]): 0 | Soybean plant response rating (soybean; [2]): 2 | Soybean plant response rating (soybean; [6]): 2 | Crabgrass plant response rating (crabgrass; [3]): 7 | Plant response rating, Crabgrass (crabgrass; [1]): 9 | Crabgrass plant response rating (crabgrass; [2]): 9 | Crabgrass plant response rating (crabgrass; [6]): 10 | Giant foxtail plant response rating (giant foxtail; [3]): 9 | Plant response rating, Giant foxtail (giant foxtail; [1]): 9 | Giant foxtail plant response rating (giant foxtail; [2]): 9 | Giant foxtail plant response rating (giant foxtail; [6]): 10 | Velvetleaf plant response rating (velvetleaf; [3]): 0 | Plant response rating, Velvetleaf (velvetleaf; [1]): 2 | Velvetleaf plant response rating (velvetleaf; [2]): 4 | Velvetleaf plant response rating (velvetleaf; [6]): 8 | Wild oats plant response rating (wild oat; [3]): 2 | Plant response rating, Wild oats (wild oat; [1]): 7 | Wild oats plant response rating (wild oat; [2]): 10 | Wild oats plant response rating (wild oat; [6]): 10 | Corn plant response rating (corn; [3]): 0 | Plant response rating, Corn (corn; [1]): 0 | Corn plant response rating (corn; [2]): 6 | Corn plant response rating (corn; [6]): 9 | Rape plant response rating (rape; [3]): 0 | Plant response rating, Rape (rape; [1]): 2 | Rape plant response rating (rape; [2]): 3 | Rape plant response rating (rape; [6]): 10 | Morningglory plant response rating (morningglory; [3]): 0 | Plant response rating, Morningglory (morningglory; [1]): 0 | Morningglory plant response rating (morningglory; [2]): 2 | Morningglory plant response rating (morningglory; [6]): 8 | B. signalgrass plant response rating (surinam grass; [3]): 5 | Plant response rating, B. signalgrass (surinam grass; [4]): 10 | B. signalgrass plant response rating (surinam grass; [2]): 10 | B. signalgrass plant response rating (surinam grass; [6]): 10 | Cocklebur plant response rating (cocklebur; [3]): 0 | Plant response rating, Cocklebur (cocklebur; [4]): 0 | Cocklebur plant response rating (cocklebur; [2]): 0 | Cocklebur plant response rating (cocklebur; [6]): 0 | Bedstraw plant response rating (bedstraw; [3]): 0 | Plant response rating, Bedstraw (bedstraw; [4]): 0 | Bedstraw plant response rating (bedstraw; [2]): 8 | Bedstraw plant response rating (bedstraw; [6]): 8 | Nutsedge plant response rating (purple nutsedge; [3]): 0 | Plant response rating, Nutsedge (purple nutsedge; [1]): 0 | Nutsedge plant response rating (purple nutsedge; [6]): 2 | Blackgrass plant response rating (blackgrass; [3]): 6 | Plant response rating, Blackgrass (blackgrass; [4]): 10 | Blackgrass plant response rating (blackgrass; [2]): 10 | Blackgrass plant response rating (blackgrass; [6]): 10
